# Test results published in patent publication US20250381165A1, “Method of Use for Benzofuran Compounds” (Tampa Bay Research Institute, Inc., priority 2024, published 2025).
# “Also recorded” adds a separate entry of the source.
# Columns and labels:
# Format in all cases: cell-based, murine
# B3Z cells = assay: Direct treatment of B3Z cells; details: BzFβ alone; data not shown
# H-2Kb on DC2.4 = target: T1, H-2Kb on DC2.4 (Mus musculus, UniProt P01901); assay: FITC-labeled Trp2 peptide binding to DC2.4; details: 50 μg/mL BzFβ 1 h, 1 h pulse 0-1000 nM peptide
# T1 construct: DC2.4 are a C57Bl/6 lineage murine cell line and as such they express MHC class I H-2Kb and H-2Db; endogenous in cells; host or cells: DC2.4
# Experimental: Cells were cultured as previously described and treated for various times as indicated in results and figure legends. Cells were centrifuged and washed using cold FACS buffer (DPBS with 5% FBS, 2 mM EDTA, 0.1% sodium azide). Cells were stained with N-terminal fluorophore-conjugated […] FITC labeled Trp2180-188 peptide ([…]) and N-terminal FITC labeled H-2Db peptide […] (Anaspec) cells were incubated with Fc block (bioLegend™; cat. no. 101320) for 10 min to 15 min to inhibit non-specific binding, followed by peptide for 1-4 h, before washing and analysis. After washing, the cells were subjected to flow cytometric analysis with the Attune NxT Flow Cytometer (Invitrogen™). Cells were gated based on live single-cell populations and positives were assessed using isotype controls and fluor-minus-one analysis when needed. Data were analyzed using the Attune NxT software or FlowJo versions 10.7 and 10.8.
# While H-2Kb is the dominant haplotype, BzFβ was investigated to determine if the compound could assist peptide binding on H-2Kb and H-2Db. […]
# [1] = target: T2, MHC class I/SIINFEKL complex on DC2.4 (Mus musculus, UniProt P01901); assay: SIINFEKL binding to DC2.4, flow cytometry with 25-D1.16 antibody
# T2 construct: DC2.4 are a C57Bl/6 lineage murine cell line and as such they express MHC class I H-2Kb and H-2Db; endogenous in cells; host or cells: DC2.4 (murine dendritic cell line, from Dr. Kenneth Rock)
# T2 sequence (P01901 22-369): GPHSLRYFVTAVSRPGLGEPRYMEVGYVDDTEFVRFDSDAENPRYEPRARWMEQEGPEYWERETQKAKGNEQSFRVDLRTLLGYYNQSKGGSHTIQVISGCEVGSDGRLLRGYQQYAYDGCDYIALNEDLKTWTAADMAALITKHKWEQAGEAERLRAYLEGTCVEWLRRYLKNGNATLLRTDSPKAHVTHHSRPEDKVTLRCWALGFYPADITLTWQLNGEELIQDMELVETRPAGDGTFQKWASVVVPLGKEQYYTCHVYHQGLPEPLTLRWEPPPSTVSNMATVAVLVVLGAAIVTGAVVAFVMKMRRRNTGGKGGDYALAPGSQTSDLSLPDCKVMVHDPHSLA
# T2 sequence (P01887 21-119 partner): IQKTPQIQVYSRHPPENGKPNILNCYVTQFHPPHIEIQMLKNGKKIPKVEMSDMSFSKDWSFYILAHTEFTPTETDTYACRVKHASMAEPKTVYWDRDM
# Experimental: To detect binding of peptides to MHC class I H2Kb molecules on various murine cells, the cells were cultured as previously described and treated for various times as indicated in results and figure legends. Cells were centrifuged and washed using cold FACS buffer (DPBS with 5% FBS, 2 mM EDTA, 0.1% sodium azide). Cells were blocked using Fc block (bioLegend™; cat. no. 101320) for 10 min to 15 min to inhibit non-specific binding, followed by staining with fluorophore-conjugated antibody PE-labeled anti-MHC I/SIINFEKL (clone 25-D1.16; Invitrogen™, Thermo Fisher Scientific Inc., Waltham, MA; cat. no. 12-5743-82), for 30 min at 4° C. After washing, the cells were subjected to flow cytometric analysis with the Attune NxT Flow Cytometer (Invitrogen). Cells were gated based on live single-cell populations and positives were assessed using isotype controls and fluor-minus-one analysis when needed. Data were analyzed using the Attune NxT software or FlowJo versions 10.7 and 10.8.
# To evaluate the potential of BzFβ to enhance peptide loading under conditions used to prepare DC vaccines, 1×10^6 DC2.4 cells were pretreated with 50 μg/mL BzFβ for 1 h in a total volume of 200 μL OptiMEM, then pulsed for 1 h with concentrations of SIINFEKL (1-10 μg/mL) often used for the in vitro production of DC vaccines. The cells were then stained for 30 min in 200 μL HBSS/2% FCS containing 0.4 μg PE-labeled MHC class I/SIINFEKL specific antibody, 25-D1.16.
# By using an MHC class I H-2K^b specific antibody, a relative comparison of the surface MHC class I was measured before and after BzFβ treatment of DC2.4 and IMG cells. These cells were treated with 25 μg/mL BzFβ for 0-4 h. Cells were centrifuged and washed using cold FACS buffer (DPBS with 5% FBS, 2 mM EDTA, 0.1% sodium azide). […] Cells were gated based on live single-cell populations and positives were assessed using isotype controls and fluor-minus-one analysis when needed. Data were analyzed using the Attune NxT software or FlowJo versions 10.7 and 10.8.
# Cultured cells were treated for various times as indicated in results and figure legends. […] Cells were gated based on live single-cell populations and positives were assessed using isotype controls and fluor-minus-one analysis when needed. Data were analyzed using the Attune NxT software or FlowJo versions 10.7 and 10.8.
smiles,measurement,setting,value
"O=C(O)/C=C/c1ccc2occc2c1 [BzFβ, (2E)-3-(1-benzofuran-5-yl)prop-2-enoic acid]",effect of direct treatment on B3Z viability or activation,B3Z cells,no effect on cell viability or cell activation
same,binding of FITC labeled Trp2 peptide to H-2Kb,H-2Kb on DC2.4,enhance peptide binding on both haplotypes; also recorded: enhancement of the direct binding
same,peptide binding under DC vaccine conditions,"[1]; 50 μg/mL BzFβ 1 h, then 1 h SIINFEKL 1-10 μg/mL",significant enhancement of peptide binding
same,SIINFEKL peptide binding to DC2.4,"[1]; 25 or 50 μg/mL, up to 24 h",significantly enhance peptide binding
same,peptide detected per cell,"[1]; 2 h pretreatment 50 μg/mL BzFβ, then 1 h 1, 5 or 10 μg/mL SIINFEKL",significantly more peptide was detected per cell
same,binding of SIINFEKL to surface MHC class I,"[1]; DC2.4, 25 μg/mL BzFβ 0-4 h",able to enhance the binding of SIINFEKL
